According to patent US10717733B2, “Haloallylamine indole and azaindole derivative inhibitors of lysyl oxidases and uses thereof” (PHARMAXIS LTD., priority 2016, dated 2020):
Structures can show the parent of a compound that is named as a salt.

Columns and labels:
[1] = system: bleomycin induced lung fibrosis; assay: Bleomycin induced lung fibrosis model; format: in vivo; conditions: mouse, intranasal bleomycin, 15 mg/kg
Description: Bleomycin induced lung fibrosis in rodents is a widely accepted experimental model to determine the anti-fibrotic activity of therapeutic agents.
Fibrosis is induced by intranasal administered of bleomycin sulphate at a dose of 0.05 U/mouse in a total volume of 50 uL PBS (see Corbel, M., et al Inhibition of bleomycin-induced pulmonary fibrosis in mice by the matrix metalloproteinase inhibitor batimastat J Pathol. 2001 April; 193(4):538-45.) Compound 12 is given 0.1-100 mg/Kg throughout the period of the experimental procedure or 7 days after bleomycin administration and then throughout the entire study.
Formalin fixed lungs sections stained with haematoxylin and eosin are assessed for fibrosis as per the scale outlined by Ashcroft et al (Simple method of estimating severity of pulmonary fibrosis on a numerical scale J Clin Pathol 1988; 41:467-470).

[2] = system: Streptozotocin (STZ)-induced diabetic nephropathy; assay: Streptozotocin induced diabetic nephropathy (kidney fibrosis) model; format: in vivo, mouse; conditions: diabetic eNOS knockout mice, 24 weeks, 0.1-100 mg/Kg
Description: Streptozotocin (STZ)-induced diabetic nephropathy is commonly used for creating rodent models of type 1 diabetes which develop renal injury, due to pancreatic cell damage with similarities to human diabetic nephropathy.
Diabetes is induced in eNOS knockout mice on C57BL/6 background by intraperitoneal STZ injection (55 mg/kg in 0.1 M citrate buffer) in mice of 6-9 weeks of age (see Huang C et al, Blockade of KCa3.1 ameliorates renal fibrosis through a TGF-bl/Smad pathway in diabetic mice. Diabetes, 2013 62(8):2923-2934).
Blood sugar level (BSL) is determined by tail vein blood. Mice with BSL>16 mmol/L two weeks post STZ injection are considered diabetic. Treatment with Compound 12 is carried out for 24 weeks from diagnosis of diabetes at a dose of 0.1-100 mg/Kg.

[3] = system: CCl4 induced liver fibrosis; assay: CCl4 induced liver fibrosis model; format: in vivo, rat; conditions: 0.1-100 mg/Kg
Description: An analysis of the use of LOXL2 inhibitors to treat inflammatory/fibrotic diseases is performed through the use of a CCl4 induced liver fibrosis model. Liver injury is frequently followed by complete parenchymal regeneration due to regenerative potency of hepatocytes. Continuous liver injury due to the administration of CCl4 leads to extracellular matrix accumulation, accompanied by recurrent hepatocyte necrosis, inflammation, and regenerative processes, causing liver fibrosis and consequently liver cirrhosis (see Natsume, M., et al., Attenuated liver fibrosis and depressed serum albumin levels in carbon tetrachloride-treated IL-6-deficient mice. J. Leukoc. Biol., 1999, 66, 601-608 also See Yao, Q, Y., et al. Inhibition by curcumin of multiple sites of the transforming growth factor-beta1 signalling pathway ameliorates the progression of liver fibrosis induced by carbon tetrachloride in rats. BMC Complement Altern Med. 2012 Sep. 16; 12(1):156.)
Rats are administered orally with CCl4 at a concentration of 0.25 μL/g in olive oil, 3 times per week for 6 weeks. Compound 25 is given 0.1-100 mg/Kg throughout the period of the experimental procedure or only 3 weeks after CCl4 administration and then throughout the entire study. […]

Row | Structure (SMILES) | Ashcroft score in the lungs [1] | kidney function by albumin/creatinine ratio quantification [2] | reduction of fibrosis by Masson's Trichrome staining (collagen expression and glomerular damage) ([2]; vs vehicle-treated group) | inhibition of liver collagen by hydroxyproline analysis ([3]; CCl4 model, statistically significant) | reduction of liver fibrosis by liver sirius red staining with quantification ([3]; rats, CCl4 orally 6 weeks, vs vehicle-treated group)
1 | CCOC(=O)c1ccc2c(c1)c(-c1cccc(S(=O)(=O)N(C)C)c1)c(C)n2C/C(F)=C/CN [Compound 12, (Z)-ethyl 1-(4-amino-2-fluorobut-2-en-1-yl)-3-(3-(N,N-dimethylsulfamoyl)phenyl)-2-methyl-1H-indole-5-carboxylate] | significantly reduced | significant improvement | up to 50% | – | –
2 | Cc1c(-c2cccc(S(=O)(=O)N(C)C)c2)c2ncccc2n1C/C(F)=C/CN [Compound 25, (Z)-3-(1-(4-amino-2-fluorobut-2-en-1-yl)-2-methyl-1H-pyrrolo[3,2-b]pyridin-3-yl)-N,N-dimethylbenzenesulfonamide Dihydrochloride] | – | – | – | > 30% | up to 50%
